Experiments:
[1] = Inhibition of Adenylate Cyclase in Rat adipocytes; assay type: cell-based
Adenosine receptor A1 = target: T1, Adenosine receptor A1 (Rattus norvegicus, UniProt P25099)
T1 sequence (P25099 whole entry): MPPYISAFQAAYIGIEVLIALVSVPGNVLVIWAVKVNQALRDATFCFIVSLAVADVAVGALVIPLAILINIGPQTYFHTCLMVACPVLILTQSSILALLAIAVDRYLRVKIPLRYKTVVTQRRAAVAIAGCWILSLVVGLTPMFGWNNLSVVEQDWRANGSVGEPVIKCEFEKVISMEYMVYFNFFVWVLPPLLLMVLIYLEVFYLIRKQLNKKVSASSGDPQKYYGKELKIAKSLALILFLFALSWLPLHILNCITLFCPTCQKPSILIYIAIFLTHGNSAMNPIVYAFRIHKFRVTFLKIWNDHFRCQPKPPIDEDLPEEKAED

Adenosine A2 receptor = Adenosine A2 receptor (Rattus norvegicus, UniProt P29276+P30543)

Row | Structure (SMILES) | IC50 [1] [nM] | Ki (Adenosine receptor A1) [nM] | Ki (Adenosine A2 receptor) [nM]
1 | Cn1c(=O)c2nc(C3CC3)[nH]c2n(C)c1=O | 42 | – | –
2 | Cn1c(=O)c2nc(Cc3ccccc3)[nH]c2n(C)c1=O | 890 | – | –
3 | OC[C@H]1O[C@@H](n2cnc3c(NC4CC4)ncnc32)[C@H](O)[C@@H]1O | – | 2.1 | –
4 | CCCn1c(=O)c2nc([C@H](C)Cc3ccccc3)[nH]c2n(CCC)c1=O | – | – | 157
5 | Cn1c(=O)c2nc(C3CCCCC3)[nH]c2n(C)c1=O | 2.5 | – | 4.7
6 | CCCn1c(=O)c2nc(C(C)Cc3ccccc3)[nH]c2n(CCC)c1=O (stereo not given) | – | – | 644
7 | CCCn1c(=O)c2nc([C@@H](C)Cc3ccccc3)[nH]c2n(CCC)c1=O | – | – | 848
8 | OC[C@H]1O[C@@H](n2cnc3c(NC4CCCCC4)ncnc32)[C@H](O)[C@@H]1O | 27 | – | –
9 | Cn1c(=O)c2nc(C3CCCC3)[nH]c2n(C)c1=O [8-CYCLOPENTYLTHEOPHYLLINE] | 0.47 | 0.46 | –
10 | Cn1c(=O)c2nc(-c3ccccc3)[nH]c2n(C)c1=O [8-PHENYL THEOPHYLLINE] | 37 | – | 20.9
11 | OC[C@H]1O[C@@H](n2cnc3c(NCc4ccccc4)ncnc32)[C@H](O)[C@@H]1O [N6-BENZYLADENOSINE] | 2200 | – | 350
12 | OC[C@H]1O[C@@H](n2cnc3c(NC4CCCC4)ncnc32)[C@H](O)[C@@H]1O [N6-CYCLOPENTYLADENOSINE] | 19.2 | – | 1.1
13 | OC[C@H]1O[C@@H](n2cnc3c(Nc4ccccc4)ncnc32)[C@H](O)[C@@H]1O [N6-PHENYLADENOSINE] | 190 | – | 110
14 | Cn1c(=O)c2nc[nH]c2n(C)c1=O [THEOPHYLLINE] | 940 | – | –

Reference: ChEMBL document CHEMBL1125020 (J Med Chem, 1990)
